Like-named read-outs stand apart in the source and are kept apart here.
Assays:
[1] = tested on: HIV BH-10 WT; experiment: Cell-based assay using BH-10 cells, wild type
[2] = tested on: HIV mutant strain Y181C; experiment: Cell-based assay using BH-10 cells, Y181C mutant
Procedure: (§1) In a typical embodiment, the NNRTIs display an EC50 in a mutant HIV strain of less than approximately 5, 2.5, 1 or 0.1 μM concentration. The degree of cross-resistance against a drug resistant strain of HIV is measured by assessing the EC50 of the desired oxo-pyrimidine compound in the target mutated, i.e., drug resistant, virus.
(§2) The degree of cross-resistance against a drug resistant strain of HIV can easily be measured by assessing the EC50 of the desired indole in the target mutated i.e., drug resistant, virus.

[3] = tested on: HIV mutant strain K103N/Y181C; experiment: Cell-based assay using BH-10 cells, K103N/Y181C mutant
Procedure: as §1, §2

[4] = Human immunodeficiency virus 1, read-out: EC50 WT///B, BH-10 cells, wild type
[5] = Human immunodeficiency virus 1, read-out: EC50 Y181C, BH-10 cells, Y181C mutant
[6] = Human immunodeficiency virus 1, read-out: EC50 K103N/Y181C, BH-10 cells, K103N/Y181C mutant
[7] = BH-10 cells, wild type, read-out: EC50 WT///B
[8] = BH-10 cells, Y181C mutant, read-out: EC50 Y181C
[9] = BH-10 cells, K103N/Y181C mutant, read-out: EC50 K103N/Y181C
[10] = read-out: EC50 K103N/Y181C, BH-10 cells, K103N/Y181C mutant

Row | Compound | EC50 [1, 4] [nM] | EC50 [2, 5] [nM] | EC50 [3, 6] [nM] | EC50 [1, 7] [nM] | EC50 [2, 8] [nM] | EC50 [3, 9] [nM] | EC50 ([1]; read-out: EC50 WT///B, BH-10 cells, wild type) [nM] | EC50 [3, 10] [nM]
1 | CCOP(=O)(c1cccc2ccccc12)c1c(C(N)=O)[nH]c2ccc(Cl)cc12 (centres unmarked) [Compound 6t] | 32.5 | > 1250 | > 1250 | – | – | – | – | –
2 | COP(=O)(c1cc(C)cc(C)c1)c1c(C(=O)NCc2cncn2C)[nH]c2ccc(Cl)cc12 (centres unmarked) [Compound 18aaa] | 3.2 | 6.4 | 3.3 | – | – | – | – | –
3 | COP(=O)(c1cc(C)cc(C#N)c1)c1c(C(N)=O)[nH]c2ccc(Cl)cc12 (centres unmarked) [Compound 7as] | 1.4 | 4.8 | 2.9 | – | – | – | – | –
4 | COP(=O)(c1cc(F)cc(F)c1)c1c(C(=O)NCc2ccccc2F)[nH]c2ccc(Cl)cc12 (centres unmarked) [Compound 18aad] | 11 | 38.2 | 12.5 | – | – | – | – | –
5 | COP(=O)(c1cc(C)cc(C)c1)c1c(C(=O)NCc2cccnc2)[nH]c2ccc(Cl)cc12 (centres unmarked) [Compound 18f] | 2.3 | 5.9 | 3.4 | – | – | – | – | –
6 | COP(=O)(c1cc(C)cc(C)c1)c1c(C(=O)NCc2cccnc2)[nH]c2ccc(Cl)c(F)c12 (centres unmarked) [Compound 18aan] | 15 | 304 | 600 | – | – | – | – | –
7 | COP(=O)(c1ccccc1Cl)c1c(C(N)=O)[nH]c2ccc(Cl)cc12 (centres unmarked) [Compound 7ao] | 0.4 | 2 | 1.4 | – | – | – | – | –
8 | COP(=O)(c1ccccc1F)c1c(C(N)=O)[nH]c2ccc(Cl)cc12 (centres unmarked) [Compound 7al] | – | – | – | 0.5 | 13.9 | 2.6 | – | –
9 | COP(=O)(c1cccc(C(C)C)c1)c1c(C(=O)NCc2ccncc2)[nH]c2ccc(Cl)cc12 (centres unmarked) [Compound 18aq] | 12 | 31.7 | 18.6 | – | – | – | – | –
10 | COP(=O)(c1cc(C)cc(C)c1)c1c(C(=O)NCN2CCOCC2)[nH]c2ccc(Cl)cc12 (centres unmarked) [Compound 18ay] | 3.5 | 19.8 | 9.3 | – | – | – | – | –
11 | COP(=O)(c1cc(C)cc(C)c1)c1c(C(=O)NCc2ccncc2)[nH]c2ccc(Cl)c(F)c12 (centres unmarked) [Compound 18r] | 3.8 | 16.5 | 3.6 | – | – | – | – | –
12 | COc1cccc(P(=O)(OC)c2c(C(=O)NCc3ccncc3)[nH]c3ccc(Cl)cc23)c1 (centres unmarked) [Compound 18av] | 0.7 | – | 2.4 | – | – | – | 0.8 | 1.4
13 | COP(=O)(c1cc(C)cc(C)c1)c1c(C(=O)NCc2cncnc2)[nH]c2ccc(Cl)cc12 (centres unmarked) [Compound 18j] | – | – | – | 3.6 | 5.1 | 1.9 | – | –
14 | COP(=O)(c1cc(C)cc(C)c1)c1c(C(=O)NCc2ccc(Br)cc2)[nH]c2ccc(Cl)cc12 (centres unmarked) [Compound 18k] | 39.3 | 102 | 50.4 | – | – | – | – | –
15 | COP(=O)(c1ccccc1)c1c(C(=O)NCN2CCOCC2)[nH]c2ccc(Cl)cc12 (centres unmarked) [Compound 18aac] | 0.5 | 10.1 | 14 | – | – | – | – | –
16 | COP(=O)(c1cc(F)cc(F)c1)c1c(C(=O)NCc2cc[n+]([O-])cc2)[nH]c2ccc(Cl)cc12 (centres unmarked) [Compound 22a] | 3.1 | 52.4 | 11.3 | – | – | – | – | –
17 | COP(=O)(c1cc(F)cc(F)c1)c1c(C(N)=O)[nH]c2ccc(Cl)cc12 (centres unmarked) [Compound 7aj] | 0.6 | 17.7 | 9.1 | – | – | – | – | –
18 | COP(=O)(c1cc(C)cc(C)c1)c1c(C(=O)NCc2ccncn2)[nH]c2ccc(Cl)cc12 (centres unmarked) [Compound 18l] | 1.7 | 2.5 | 2.2 | – | – | – | – | –
19 | CCOP(=O)(c1cccc(C(F)(F)F)c1)c1c(C(N)=O)[nH]c2ccc(Cl)cc12 (centres unmarked) [Compound 6f] | 6.7 | – | 498 | – | – | – | – | –
20 | CCOP(=O)(c1ccc(C)c(C)c1)c1c(C(N)=O)[nH]c2ccc(Cl)cc12 (centres unmarked) [Compound 6y] | – | – | – | 2.6 | – | > 1250 | – | –
21 | COP(=O)(c1cccc(-c2ccccc2)c1)c1c(C(N)=O)[nH]c2ccc(Cl)cc12 (centres unmarked) [Compound 7i] | 9.9 | 398 | 380 | – | – | – | – | –
22 | CCOP(=O)(c1cccc(CC)c1)c1c(C(N)=O)[nH]c2ccc(Cl)cc12 (centres unmarked) [Compound 6e] | 2 | 34.1 | 1.2 | – | – | – | – | –
23 | COP(=O)(c1cc(C)cc(C)c1)c1c(C(=O)NCc2cc[n+]([O-])cc2F)[nH]c2ccc(Cl)cc12 (centres unmarked) [Compound 22d] | 2.9 | 1.5 | 6.7 | – | – | – | – | –
24 | COP(=O)(c1cc(C)cc(C)c1)c1c(C(=O)NCc2cnccn2)[nH]c2ccc(Cl)cc12 (centres unmarked) [Compound 18i] | 3 | 16.8 | 1.8 | – | – | – | – | –
25 | COP(=O)(c1ccccc1C)c1c(C(N)=O)[nH]c2ccc(Cl)cc12 (centres unmarked) [Compound 7ad] | – | – | – | 1.3 | 32 | 4.7 | – | –
26 | CCOP(=O)(c1cccc(F)c1)c1c(C(N)=O)[nH]c2ccc(Cl)cc12 (centres unmarked) [Compound 6ae] | – | – | – | 0.5 | 61.6 | 11 | – | –

Row | Compound | EC50 [1, 4] [nM] | EC50 [2, 5] [nM] | EC50 [3, 6] [nM] | EC50 [1, 7] [nM] | EC50 [2, 8] [nM] | EC50 [3, 9] [nM] | EC50 ([1]; read-out: EC50 WT///B, BH-10 cells, wild type) [nM] | EC50 [3, 10] [nM]
27 | COP(=O)(c1cccc(COCc2ccccc2)c1)c1c(C(N)=O)[nH]c2ccc(Cl)cc12 (centres unmarked) [Compound 7ap] | 153 | 1140 | > 1250 | – | – | – | – | –
28 | COP(=O)(c1c(C(N)=O)[nH]c2ccc(Cl)cc12)C1CCCCC1 (centres unmarked) [Compound 57a] | 1.7 | – | 162 | – | – | – | – | –
29 | COP(=O)(c1cccc(C)c1)c1c(C(=O)NCc2ccncc2)[nH]c2ccc(Cl)cc12 (centres unmarked) [Compound 18a] | 1 | 10.1 | 3.1 | – | – | – | – | –
30 | COP(=O)(c1cccc(C)c1)c1c(C(N)=O)[nH]c2ccc(Cl)cc12 (centres unmarked) [Compound 7ac] | – | – | – | 1.3 | 9.6 | 5.5 | – | –
31 | COP(=O)(c1ccccc1)c1c(C(N)=O)[nH]c2ncc(Cl)cc12 (centres unmarked) [Compound 7-Aza] | – | – | – | 14.7 | > 1250 | 193 | – | –
32 | COP(=O)(c1ccccc1)c1c(C(=O)NCc2ccco2)[nH]c2ccc(Cl)cc12 (centres unmarked) [Compound 18at] | 1.8 | 1.5 | 0.5 | – | – | – | – | –
33 | COP(=O)(c1ccc(F)cc1)c1c(C(N)=O)[nH]c2ccc(Cl)cc12 (centres unmarked) [Compound 7ak] | 5.5 | 34.5 | 468 | – | – | – | – | –
34 | COP(=O)(c1cccc(/C=C/C#N)c1)c1c(C(N)=O)[nH]c2ccc(Cl)cc12 (centres unmarked) [Compound 33a] | 3.2 | 2 | 3.4 | – | – | – | – | –
35 | COP(=O)(c1cc(C)cc(C)c1)c1c(C(=O)NCc2cc[n+]([O-])cc2)[nH]c2ccc(Cl)c(F)c12 (centres unmarked) [Compound 22m] | 2.1 | 2.6 | 1.9 | – | – | – | – | –
36 | COP(=O)(c1cc(C)cc(C)c1)c1c(C(=O)NCc2c(F)cccc2F)[nH]c2ccc(Cl)cc12 (centres unmarked) [Compound 18aah] | – | – | – | 7 | 22.8 | 16.9 | – | –
37 | COP(=O)(c1cccc(C2CC2)c1)c1c(C(N)=O)[nH]c2ccc(Cl)cc12 (centres unmarked) [Compound 7aa] | 2.2 | 7 | 3.7 | – | – | – | – | –
38 | C=Cc1cccc(P(=O)(OC)c2c(C(N)=O)[nH]c3ccc(Cl)cc23)c1 (centres unmarked) [Compound 18aaq] | 7.2 | 18.4 | 27.6 | – | – | – | – | –
39 | COP(=O)(c1cc(F)cc(F)c1)c1c(C(=O)NCc2ccc(C#N)cc2)[nH]c2ccc(Cl)cc12 (centres unmarked) [Compound 18q] | 3 | 35.7 | 54.2 | – | – | – | – | –
40 | COP(=O)(c1cc(C)cc(C#N)c1)c1c(C(=O)NCc2cc[n+]([O-])cc2)[nH]c2ccc(Cl)cc12 (centres unmarked) [Compound 22ak] | 7 | 6.7 | 11 | – | – | – | – | –
41 | COc1ccccc1P(=O)(OC)c1c(C(N)=O)[nH]c2ccc(Cl)cc12 (centres unmarked) [Compound 7n] | – | – | – | 1.7 | 66 | 1.5 | – | –
42 | COc1cccc(P(=O)(OC)c2c(C(N)=O)[nH]c3ccc(Cl)cc23)c1 (centres unmarked) [Compound 7l] | 0.6 | 38.5 | 21.8 | – | – | – | – | –
43 | COP(=O)(c1cc(F)cc(F)c1)c1c(C(=O)NCC#N)[nH]c2ccc(Cl)cc12 (centres unmarked) [Compound 59a] | 1.4 | 47.3 | 8.4 | – | – | – | – | –
44 | CCc1cccc(P(=O)(OC)c2c(C(N)=O)[nH]c3ccc(Cl)cc23)c1 (centres unmarked) [Compound 7d] | 0.6 | 6.5 | 1.4 | – | – | – | – | –
45 | CCOP(=O)(c1cccc(C(C)C)c1)c1c(C(N)=O)[nH]c2ccc(Cl)cc12 (centres unmarked) [Compound 6i] | 1.2 | 9.1 | 3.5 | – | – | – | – | –
46 | CCOP(=O)(c1cc(C)ccc1C)c1c(C(N)=O)[nH]c2ccc(Cl)cc12 (centres unmarked) [Compound 6aa] | – | – | – | 0.2 | 1.9 | 1.6 | – | –
47 | COP(=O)(c1ccccc1)c1c(C(=O)NCc2ccccc2F)[nH]c2ccc(Cl)cc12 (centres unmarked) [Compound 18aab] | 3.8 | 33.5 | 10.2 | – | – | – | – | –
48 | CCOP(=O)(c1cccc(C#N)c1)c1c(C(N)=O)[nH]c2ccc(Cl)cc12 (centres unmarked) [Compound 6g] | 9.5 | – | 195 | – | – | – | – | –
49 | CCOP(=O)(c1cccc(OC)c1)c1c(C(N)=O)[nH]c2ccc(Cl)cc12 (centres unmarked) [Compound 6m] | 2.3 | – | 66.4 | – | – | – | – | –
50 | CCOP(=O)(c1ccccc1C)c1c(C(N)=O)[nH]c2ccc(Cl)cc12 (centres unmarked) [Compound 6x] | – | – | – | 21.3 | – | 448 | – | –
51 | COP(=O)(c1cc(C)cc(C)c1)c1c(C(=O)NCc2ccc(F)cc2F)[nH]c2ccc(Cl)cc12 (centres unmarked) [Compound 18aaj] | – | – | 41.6 | – | – | – | – | 25.8
52 | CCOP(=O)(c1ccc(C)cc1)c1c(C(N)=O)[nH]c2ccc(Cl)cc12 (centres unmarked) [Compound 6w] | 7.2 | – | > 1250 | – | – | – | – | –

Reference: US7534809B2, “Phospho-indoles as HIV inhibitors” (priority 2004, dated 2009)
